Reference: patent US20140275711A1, “1-(Arylmethyl)-5,6,7,8-tetrahydroquinazolline-2,4-diones and Analogs and the Use Thereof” (Impact Therapeutics, Inc., priority 2011, published 2014)
Read-outs that look alike come from different tables or passages of the source.

Key:
[1] = tested on: Human breast cancer cell line T47D; assay: Potentiation of MMS induced apoptosis, cell based caspase-3 activity assay; conditions: read-out: Compounds potentiate the apoptosis inducing activity of MMS (EC50);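 further: Caspase-3 activity in cell lysates measured by fluorescence (RFU), EC50 fitted from sigmoidal curve of signal versus log compound concentration in presence of MMS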
Protocol: Human breast cancer cell line T47D (Nanjing KeyGEN Biotech. CO., LTD.) was used to determine the potentiation effect of PARP-1 inhibitors on the apoptosis inducing activity of DNA damaging anticancer drugs such as MMS. Intracellular caspase-3 activity was used to measure cell apoptosis. Briefly, T47D cells were grown in DMEM/F12 cell culture medium (Hyclone) supplemented with 0.2 U/ml insulin (Genview) and 10% FBS (Hyclone). A day before experiment, 20000 of T47D cells were seeded to each well of a 96-well cell culture plate and maintained at 37° C. and 5% CO2 in a cell culture incubator overnight. On the day of experiment, cell culture medium was removed. […] The serial dilutions of the compounds to be tested and the reference compounds were made in a 1:3 and 1:10 fashion in DMSO. The 10-fold compound solutions were made by mixing 10 μl DMSO serial dilution solutions with 90 μl fresh growth medium. Twenty four hours later, the cells in the 96-well plates were centrifuged at 1000 g for 5 min and the supernatants were removed. 50 μl lysis buffer (10 mM Tris, pH 7.5, 0.1M NaCl, 1 mM EDTA, 0.01% Triton X-100) was added to each well and the plates were shaked horizontally for 30 min at 4° C. After centrifugation at 1000 g at 4° C. for 10 min, 20 μl of supernatant was transferred from each well to a corresponding well in a 384-well black plate. […] The plates were shaked to uniformly mix the wells and incubated at 37° C. for 3 h. […] The caspase-3 activity induced by the compounds was expressed as a relative fluorescence unit (RFU). The obtained fluorescence readings were analyzed using a commercial graphic software (GraphPad Prism 5) and plotted against the Log value of the compound concentrations. The EC50 values were obtained by fitting the data points with the equation of Y (fluorescence reading)=minimal fluorescence reading+(maximal fluorescence reading−minimal fluorescence reading)/(1+10̂(LogEC50−LogC)), where C is the concentration of the testing compound. The EC50 values were obtained by fitting the data points with S-shaped dose response curve equation (GraphPad Software, Inc).

[2] = tested on: SW620 human colorectal cancer cells; assay: Potentiation of the growth inhibiting activity of MMS, MTT based cell viability assay; conditions: read-out: Compounds potentiate the growth inhibiting activity of MMS (IC50)
Protocol: The synergistic potentiation effect of PARP inhibitors on the growth inhibiting activity of DNA damaging anticancer drugs such as methyl methanesulphonate (MIMS) were measured with SW620 human colorectal cancer cells (Shanghai Cancer Institute) using a MTT based cell viability assay. SW620 cells were grown and maintained in RPMI1640 (Gibco) medium supplemented with 10% FBS (Hyclone). In the first day of experiment, 4000 cells were seeded to each well of a 96-well cell culture plate and incubated at 37° C. and 5% CO2 in a cell culture incubator overnight. In the next day, the cell culture medium was removed. […] The serial dilutions of the reference compounds and the compounds to be tested were made with a 1:3 and 1:10 fashion in DMSO. The 10-fold concentrated solutions of these compounds were made by mixing 10 μl of the serial dilutions in DMSO with 90 μl fresh medium. The final concentration of DMSO in the medium was 1%. The cells were incubated at 37° C. in 5% CO2 cell culture incubator for additional 5 days (120 hours). Afterwards, the 96-well cell culture plate was taken out and 20 μl of MTT solution was added to each well and incubated at 37° C. for 4 h. The medium was removed and 100 μl DMSO was added to each well. The 96-well cell culture plates were shaked adequately for 10 min and readed in a Varioskan Flash plate reader (Thermo Fisher Scientific) at 520 and 690 nm. The data were analyzed by Prism 5 software (GraphPad). The obtained 520 nm absorbance readings substracting corresponding 690 nm reading were analyzed and plotted against the Log scale of the compound concentrations.

[3] = tested on: BRCA-2 deficient CAPAN-1 human pancreatic cancer cells; assay: Cell growth inhibition of BRCA-2 deficient CAPAN-1 cells, MTT based cell viability assay; conditions: Homo sapiens, CAPAN-1, 240 h, read-out: Growth inhibition of CAPAN-1 cells by compounds (IC50)
Protocol: BRCA-2 deficient CAPAN-1 human pancreatic cancer cells were used to test the growth inhibiting activity of substituted 1-(arylmethyl)-5,6,7,8-tetrahydroquinazoline-2,4(1H,3H)-diones. Briefly, CAPAN-1 cells are grown and maintained in IMEM medium supplemented with 20% FBS. The assay takes 10 days to finish. On day 1, 6000 CAPAN-1 cells are seeded to each well of a 96-well plate. The cells are incubated at 37° C. in a CO2 cell culture incubator overnight. […] Ten-fold compound solutions were made by mixing 10 μl DMSO serial dilution solutions with 90 μl fresh growth medium. The cell culture medium was removed and 180 μl fresh media with FBS and 20 μl of compound solutions were added to each well. The final concentration of DMSO was 1%. Cells were then returned to the CO2 cell culture incubator and incubated at 37° C. for two days (day 3 and day 4). On day 5, the same procedure as what was done on day 2 was repeated. Cell culture medium was removed and fresh medium containing serial dilutions of compounds or reference compounds were added. Cells were returned to the CO2 cell culture incubator and incubated for two more days. On day 8, same procedure was repeated again and fresh medium containing the testing compounds or reference compounds were added and incubated for an additional 2 days. On day 10, 20 μl of MTT reagent (5 mg/ml) was added to each well of the cell culture plate and incubated for 4 h. The cell culture media was removed and 100 μl DMSO was added to each well. The 96-well cell culture plates were shaked horizontally for 10 min and readed in a Varioskan Flash plate reader (Thermo Fisher Scientific) at 520 and 690 nm. The obtained 520 nm absorbance readings substracting corresponding 690 nm reading were analyzed using a commercial graphic software (GraphPad Prism 5) and plotted against the Log scale of the compound concentrations.

[4] = T47D cells, 100 nM MMS, 24 hours, intracellular caspase-3 activity
[5] = SW620 cells, medium containing 1.5 μg/ml MMS, 5 days (120 hours), MTT

Compound | EC50 ([1]; Homo sapiens, T47D, 24 h) [µM] | IC50 ([2]; Homo sapiens, SW-620, 120 h) [µM] | IC50 [3] [µM] | EC50 [1, 4] [µM] | IC50 [2, 5] [µM]
O=C(c1ccc(F)c(Cn2c3c(c(=O)[nH]c2=O)CCCC3)c1)N1CCN(C(=O)C2CCCCC2)CC1 [Example 49, 1-(6-Fluoro-3-(4-(cyclohexylcarbonyl)piperazine-1-carbonyl)benzyl)-5,6,7,8-tetrahydroquinazoline-2,4(1H,3H)-dione] | 0.0072 | 0.0053 | 0.123 |  | 
O=C(c1ccccc1)N1CCN(C(=O)c2cccc(Cn3c4c(c(=O)[nH]c3=O)CCCC4)c2)CC1 [Example 10, 1-(3-(4-Benzoylpiperazine-1-carbonyl)benzyl)-5,6,7,8-tetrahydroquinazoline-2,4(1H,3H)-dione] | 0.325 | 0.036 |  |  | 
O=C(c1cc(Cn2c3c(c(=O)[nH]c2=O)CCCC3)ccc1F)N1CCN(CC2CCCCC2)CC1 [Example 38, 1-(4-Fluoro-3-(4-(cyclohexylmethyl)piperazine-1-carbonyl)benzyl)-5,6,7,8-tetrahydroquinazoline-2,4(1H,3H)-dione] | 0.025 | 0.01 | 2.27 |  | 
O=C(c1cc(Cn2c3c(c(=O)[nH]c2=O)CCCC3)ccc1F)N1CCC(c2ccccc2)CC1 [Example 54, 1-(4-Fluoro-3-(4-phenylpiperidine-1-carbonyl)benzyl)-5,6,7,8-tetrahydroquinazoline-2,4(1H,3H)-dione] | 0.532 | 0.107 |  |  | 
O=C(c1cccc(Cn2c3c(c(=O)[nH]c2=O)CCCC3)c1)N1CCN(c2ncccn2)CC1 [Example 5, 1-(3-(4-(Pyrimidin-2-yl)piperazine-1-carbonyl)benzyl)-5,6,7,8-tetrahydroquinazoline-2,4(1H,3H)-dione] | 0.0035 | 0.015 | 0.022 |  | 
O=C(c1ccsc1)N1CCN(C(=O)c2ccc(F)c(Cn3c4c(c(=O)[nH]c3=O)CCCC4)c2)CC1 [Example 46, 1-(6-Fluoro-3-(4-(thiophene-3-carbonyl)piperazine-1-carbonyl)benzyl)-5,6,7,8-tetrahydroquinazoline-2,4(1H,3H)-dione] | 0.013 | 0.01 | 0.703 |  | 
O=C(c1ccccc1)N1CCN(C(=O)c2cc(Cn3c4c(c(=O)[nH]c3=O)CCCC4)ccc2F)CC1 [Example 18, 1-(4-Fluoro-3-(4-benzoylpiperazine-1-carbonyl)benzyl)-5,6,7,8-tetrahydroquinazoline-2,4(1H,3H)-dione] | 0.041 | 0.0095 | 0.035 |  | 
O=C(c1ccccc1Cn1c2c(c(=O)[nH]c1=O)CCCC2)N1CCN(c2ncccn2)CC1 [Example 56, 1-(2-(4-(Pyrimidin-2-yl)piperazine-1-carbonyl)benzyl)-5,6,7,8-tetrahydroquinazoline-2,4(1H,3H)-dione] | > 10 | > 10 |  |  | 
COc1ccc(C(=O)N2CCN(C(=O)c3cc(Cn4c5c(c(=O)[nH]c4=O)CCCC5)ccc3F)CC2)cc1 [Example 37, 1-(4-Fluoro-3-(4-(4-methoxybenzoyl)piperazine-1-carbonyl)benzyl)-5,6,7,8-tetrahydroquinazoline-2,4(1H,3H)-dione] | 0.048 | 0.014 |  |  | 
O=C(c1cccc(Cn2c3c(c(=O)[nH]c2=O)CCCC3)c1)N1CCN(C(=O)c2ccco2)CC1 [Example 13, 1-(3-(4-(Furan-2-carbonyl)piperazine-1-carbonyl)benzyl)-5,6,7,8-tetrahydroquinazoline-2,4(1H,3H)-dione] | 0.374 | 0.033 |  |  | 
CCS(=O)(=O)N1CCN(C(=O)c2cc(Cn3c4c(c(=O)[nH]c3=O)CCCC4)ccc2F)CC1 [Example 29, 1-(4-Fluoro-3-(4-ethylsulfonylpiperazine-1-carbonyl)benzyl)-5,6,7,8-tetrahydroquinazoline-2,4(1H,3H)-dione] | 0.138 | 0.018 |  |  | 
CC1CCCc2c1c(=O)[nH]c(=O)n2Cc1ccc(F)c(C(=O)N2CCN(c3ccccn3)CC2)c1 (stereo not drawn) [Example 58, 1-(4-Fluoro-3-(4-(pyridin-2-yl)piperazine-1-carbonyl)benzyl)-5-methyl-5,6,7,8-tetrahydroquinazoline-2,4(1H,3H)-dione] |  |  |  | 0.35 | 0.082
O=C(c1ccc(F)c(Cn2c3c(c(=O)[nH]c2=O)CCCC3)c1)N1CCN(C(=O)c2ccco2)CC1 [Example 52, 1-(6-Fluoro-3-(4-(furan-2-carbonyl)piperazine-1-carbonyl)benzyl)-5,6,7,8-tetrahydroquinazoline-2,4(1H,3H)-dione] | 0.024 | 0.016 |  |  | 
CC1CCc2c(c(=O)[nH]c(=O)n2Cc2ccc(F)c(C(=O)N3CCN(c4ncccn4)CC3)c2)C1 (stereo not drawn) [Example 57, 1-(4-Fluoro-3-(4-(pyrimidin-2-yl)piperazine-1-carbonyl)benzyl)-6-methyl-5,6,7,8-tetrahydroquinazoline-2,4(1H,3H)-dione] | 0.429 | 0.221 |  |  | 
O=C(c1ccsc1)N1CCN(C(=O)c2cccc(Cn3c4c(c(=O)[nH]c3=O)CCCC4)c2)CC1 [Example 15, 1-(3-(4-(Thiophene-3-carbonyl)piperazine-1-carbonyl)benzyl)-5,6,7,8-tetrahydroquinazoline-2,4(1H,3H)-dione] | 0.072 | 0.031 |  |  | 
O=C(c1cc(Cn2c3c(c(=O)[nH]c2=O)CCCC3)ccc1F)N1CCN(C(=O)C2CC2)CC1 [Example 19, 1-(4-Fluoro-3-(4-(cyclopropylcarbonyl)piperazine-1-carbonyl)benzyl)-5,6,7,8-tetrahydroquinazoline-2,4(1H,3H)-dione] | 0.324 | 0.025 |  |  | 
O=C(c1cccc(Cn2c3c(c(=O)[nH]c2=O)CCC3)c1)N1CCN(c2ncccn2)CC1 [Example 45] |  |  |  | 0.402 | 0.138
O=C(c1ccc(Cn2c3c(c(=O)[nH]c2=O)CCCC3)cc1)N1CCN(c2ncccn2)CC1 [Example 55, 1-(4-(4-(Pyrimidin-2-yl)piperazine-1-carbonyl)benzyl)-5,6,7,8-tetrahydroquinazoline-2,4(1H,3H)-dione] | > 10 | > 10 |  |  | 
O=C(c1cccc(Cn2c3c(c(=O)[nH]c2=O)CCCC3)c1)N1CCN(C(=O)c2cccs2)CC1 [Example 7, 1-(3-(4-(Thiophene-2-carbonyl)piperazine-1-carbonyl)benzyl)-5,6,7,8-tetrahydroquinazoline-2,4(1H,3H)-dione] | 0.062 | 0.021 |  |  | 
O=C(c1cccc(Cn2c3c(c(=O)[nH]c2=O)CCCC3)c1)N1CCN(C(=O)C2CC2)CC1 [Example 6, 1-(3-(4-(Cyclopropylcarbonyl)piperazine-1-carbonyl)benzyl)-5,6,7,8-tetrahydroquinazoline-2,4(1H,3H)-dione] | > 1 | 0.12 |  |  | 
CC(=O)N1CCN(C(=O)c2cc(Cn3c4c(c(=O)[nH]c3=O)CCCC4)ccc2F)CC1 [Example 34, 1-(4-Fluoro-3-(4-acetylpiperazine-1-carbonyl)benzyl)-5,6,7,8-tetrahydroquinazoline-2,4(1H,3H)-dione] | 0.402 | 0.042 |  |  | 
CCN1CCN(C(=O)c2cc(Cn3c4c(c(=O)[nH]c3=O)CCCC4)ccc2F)CC1 [Example 31, 1-(4-Fluoro-3-(4-ethylpiperazine-1-carbonyl)benzyl)-5,6,7,8-tetrahydroquinazoline-2,4(1H,3H)-dione] | 0.295 | 0.031 |  |  | 
O=C(c1ccccc1)N1CCN(C(=O)c2ccc(F)c(Cn3c4c(c(=O)[nH]c3=O)CCCC4)c2)CC1 [Example 48, 1-(6-Fluoro-3-(4-benzoylpiperazine-1-carbonyl)benzyl)-5,6,7,8-tetrahydroquinazoline-2,4(1H,3H)-dione] | 0.026 | 0.013 |  |  | 
O=C(c1cccc(Cn2c3c(c(=O)[nH]c2=O)CCCC3)c1)N1CCN(c2nccs2)CC1 [Example 8, 1-(3-(4-(Thiazol-2-yl)piperazine-1-carbonyl)benzyl)-5,6,7,8-tetrahydroquinazoline-2,4(1H,3H)-dione] | 0.02 | 0.011 |  |  | 
O=C(c1ccc(F)cc1)N1CCN(C(=O)c2cc(Cn3c4c(c(=O)[nH]c3=O)CCCC4)ccc2F)CC1 [Example 32, 1-(4-Fluoro-3-(4-(4-fluorobenzoyl)piperazine-1-carbonyl)benzyl)-5,6,7,8-tetrahydroquinazoline-2,4(1H,3H)-dione] | 0.027 | 0.0063 |  |  | 
O=C(c1cccc(Cn2c3c(c(=O)[nH]c2=O)CCCC3)c1)N1CCN(C(=O)C2CCCCC2)CC1 [Example 12, 1-(3-(4-(Cyclohexylcarbonyl)piperazine-1-carbonyl)benzyl)-5,6,7,8-tetrahydroquinazoline-2,4(1H,3H)-dione] | 0.062 | 0.0097 |  |  | 
O=C(c1cc(Cn2c3c(c(=O)[nH]c2=O)CCCCC3)ccc1F)N1CCN(c2ncccn2)CC1 [Example 59, 1-(4-Fluoro-3-(4-(pyrimidin-2-yl)piperazine-1-carbonyl)benzyl)-6,7,8,9-tetrahydro-1H-cyclohepta[d]pyrimidine-2,4(3H,5H)-dione] | 0.309 | 0.042 |  |  | 
O=C(c1cccc(Cn2c3c(c(=O)[nH]c2=O)CCCC3)c1)N1CCN(C(=O)C2CCC2)CC1 [Example 14, 1-(3-(4-(Cyclobutylcarbonyl)piperazine-1-carbonyl)benzyl)-5,6,7,8-tetrahydroquinazoline-2,4(1H,3H)-dione] | 0.035 | 0.022 |  |  | 
O=C(c1cccc(Cn2c3c(c(=O)[nH]c2=O)CCCC3)c1)N1CCN(c2cnccn2)CC1 [Example 16, 1-(3-(4-(Pyrazin-2-yl)piperazine-1-carbonyl)benzyl)-5,6,7,8-tetrahydroquinazoline-2,4(1H,3H)-dione] | 0.043 | 0.013 |  |  | 
